Measured values from the supplement of paper PMC11451515.

Assays:
Assay in all cases: AUC of viability dose-response curve (% viability x log10 dose units); higher = less sensitive
Conditions in all cases: 48 h
SEM cells = tested on: SEM cells
Outline: (§1)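 Leukemia cells adapted to each medium were seeded in 1536-well plates (500 or 1000 cells/well) and given library compounds in DMSO for 48 h at 37°C. The 11 threefold doses spanned 47 μM to 0.79 nM, and CellTiter-Glo One luminescence was normalised per plate to DMSO and cell-free wells before four-parameter log-logistic fitting on log10 dose. Area under the curve was integrated with the trapezoidal rule, scaling curves above full viability and removing curves that failed quality control.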

NOMO1 = tested on: NOMO1
Outline: as §1

P12-Ichikawa = tested on: P12-Ichikawa
Outline: as §1

[1] = RPMI 5 mM glucose + 10% dialyzed FBS

SMILES	AUC of viability dose-response curve (SEM cells; HPLM + 10% dialyzed FBS)	AUC of viability dose-response curve (SEM cells; RPMI 5 mM glucose + 10% FBS)	AUC of viability dose-response curve (SEM cells; [1])	AUC of viability dose-response curve (NOMO1; HPLM + 10% dialyzed FBS)	AUC of viability dose-response curve (NOMO1; RPMI 5 mM glucose + 10% FBS)	AUC of viability dose-response curve (NOMO1; [1])	AUC of viability dose-response curve (P12-Ichikawa; HPLM + 10% dialyzed FBS)	AUC of viability dose-response curve (P12-Ichikawa; RPMI 5 mM glucose + 10% FBS)	AUC of viability dose-response curve (P12-Ichikawa; [1])
CC(C)NC[C@@H](C(=O)N1CCN(c2ncnc3c2[C@H](C)C[C@H]3O)CC1)c1ccc(Cl)cc1	257	251	249	411	444	419	367	350	362
COc1cc2ncnc(Nc3cc(Br)c(O)c(Br)c3)c2cc1OC	458	462	461	477	470	467	473	469	472
COc1ccc(C2CNC(=O)C2)cc1OC1CCCC1 (configuration not stated)	455	453	448	465	460	465	470	472	450
C\C1=C(\C=C(\C#N)C(=O)N1)C2=CC=NC=C2	418	471	460	474	464	468			
CN1CCN(c2ccc([N+](=O)[O-])c3no[n+]([O-])c23)CC1	418	464	424	457	432	421	435	437	436
Cc1ccc([S+](=O)([O-])N[C@@H](Cc2ccccc2)C(=O)CCl)cc1	427	429	420	463	434	450			
Cc1c(NC(=O)OC[C@@H]2COCCN2)cn2ncnc(Nc3ccc4c(cnn4Cc4cccc(F)c4)c3)c12				379	410	397	422	401	417
CC(C)C1=C(O)C=C(O)C(=C1)C/2=N/NC(=O)N2C3=CC4=C(C=C3)[N](C)C=C4	248	241	259	259	254	250	335	304	307
O=c1[nH]c2ccccc2n1C1CCN(Cc2ccc(-c3nc4cc5nc[nH]c5cc4nc3-c3ccccc3)cc2)CC1				439	463	474	457	460	443
Cn1c(CNc2ccc(C(=N)N)cc2)nc2cc(C(=O)N(CCC(=O)O)c3ccccn3)ccc21	424	469	451	441	443	440	448	472	465
CNC[C@H](O)c1ccc(O)c(O)c1				425	402	408	446	448	412
CC(N)C12CC3CC(CC(C3)C1)C2 (configuration not stated)	468	447	477	453	437	443	449	456	455
CN1C[C@H]2c3ccccc3Oc3ccc(Cl)cc3[C@@H]2C1	372	395	396	440	410	418	436	462	410
